Source: patent US10189788B2, “Substituted N,2-diarylquinoline-4-carboxamides and the use thereof as anti-inflammatory agents” (BAYER PHARMA AKTIENGESELLSCHAFT, priority 2014, dated 2019)

Key:
Human FP Receptor [1] = target: T1, Human FP Receptor (Homo sapiens (Human), UniProt P43088); assay: In vitro test of inhibition of human FP receptor activity, variant B-1B (PGF2α-induced calcium flux in recombinant FP-expressing CHO cells with GCaMP6); format: cell-based; settings: recombinant FP-expressing CHO cells with GCaMP6, calcium flux induced by 3 nM PGF2α, some mean values from multiple determinations
T1 sequence (P43088 whole entry): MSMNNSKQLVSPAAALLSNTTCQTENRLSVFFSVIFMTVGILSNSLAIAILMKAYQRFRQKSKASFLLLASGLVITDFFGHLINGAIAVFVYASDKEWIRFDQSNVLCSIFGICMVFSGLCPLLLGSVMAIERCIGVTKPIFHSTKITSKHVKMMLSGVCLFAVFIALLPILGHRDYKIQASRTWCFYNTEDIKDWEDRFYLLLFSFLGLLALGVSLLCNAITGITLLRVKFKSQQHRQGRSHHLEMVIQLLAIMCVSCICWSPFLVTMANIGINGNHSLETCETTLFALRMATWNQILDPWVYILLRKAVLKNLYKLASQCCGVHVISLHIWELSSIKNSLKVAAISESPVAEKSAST
Source text: 470 nm/em. 525 nm in a fluorescence measuring instrument (FLIPR Tetra®, MolecularDevices) for 120 seconds.

Human FP Receptor [2] = target: T1, Human FP Receptor; assay: In vitro test of inhibition of human FP receptor activity, variant B-1A (PGF2α-induced calcium flux in FP-expressing CHEM1 cells); format: cell-based; settings: calcium flux induced by 3 nM PGF2α, Fluo-8, some mean values from multiple determinations
Source text: • BSA bovine serum albumin • CRTH2 chemoattractant receptor-homologous molecule expressed on T helper type 2 cells • DMEM Dulbecco's modified Eagle's medium • DMSO dimethyl sulfoxide • DP PGD2 receptor • EC50 half-maximum effective concentration • em. emission • EP PGE2 receptor • ex. excitation • FCS fetal calf serum • FP PGF2α receptor • HEPES 2-[4-(2-hydroxyethyl)piperazin-1-yl]ethanesulfonic acid • IC50 half-maximum inhibitory concentration • IP PGI2 receptor • MES 2-(N-morpholino)ethanesulfonic acid • Pen/Strep penicillin/streptomycin • PGD2 prostaglandin D2 • PGE2 prostaglandin E2 • PGF2α prostaglandin F2α • PGI2 prostaglandin […] • TC tissue culture • TP thromboxane A2 receptor • Tris tris(hydroxymethyl)aminomethane • v/v volume to volume ratio (of a solution) • w/w weight to weight ratio (of a solution) B-1.

[3] = eliminated renally; cited from earlier work
[4] = unstable molecule, rearranged enzymatically in lung, liver and kidney to 15-ketodihydro-PGF2α; cited from earlier work

Row | Molecule | IC50 (Human FP Receptor [1]) | IC50 (Human FP Receptor [2]) | half-life [3] | t1/2 [4]
1 | Cc1c(-c2ccccc2)nc2ccc(C(C)(C)C)cc2c1C(=O)Nc1ccc(C(=O)O)cc1F [Example 61, 4-{[(6-tert-Butyl-3-methyl-2-phenylquinolin-4-yl)carbonyl]amino}-3-fluorobenzoic acid] | 79 nM | 131 nM | – | –
2 | Cc1c(-c2ccccc2)nc2ccc(Br)cc2c1C(=O)Nc1ccc(C(=O)O)c(F)c1F [Example 65, 4-{[(6-Bromo-3-methyl-2-phenylquinolin-4-yl)carbonyl]amino}-2,3-difluorobenzoic acid] | 60 nM | 105 nM | – | –
3 | Cc1c(-c2ccccc2)nc2ccc(Br)cc2c1C(=O)Nc1ccc(C(=O)NS(=O)(=O)C(F)(F)F)cc1F [Example 67, 6-Bromo-N-(2-fluoro-4-{[(trifluoromethyl)sulfonyl]carbamoyl}phenyl)-3-methyl-2-phenylquinoline-4-carboxamide] | 134 nM | 239 nM | – | –
4 | Cc1c(-c2ccccc2)nc2ccc(Br)cc2c1C(=O)Nc1ccc(C(=O)NS(=O)(=O)N(C)C)cc1F [Example 68, 6-Bromo-N-{4-[(dimethylsulfamoyl)carbamoyl]-2-fluorophenyl}-3-methyl-2-phenylquinoline-4-carboxamide] | 182 nM | 318 nM | – | –
5 | Cc1c(-c2ccccc2)nc2ccc(Br)cc2c1C(=O)Nc1ccc(C(=O)O)cc1F [Example 69, Potassium 4-{[(6-bromo-3-methyl-2-phenylquinolin-4-yl)carbonyl]amino}-3-fluorobenzoate] | 59 nM | 104 nM | – | –
6 | Bleomycin | – | – | about 3 hours | –
7 | Prostaglandin F2alpha [PGF2α] | – | – | – | < 1 min
